Data: US20230382869A1, “Phenyl-3,4-dihydroisoquinolin-2(1h)-yl-ethan-1-one derivatives as dopamine d1receptor positive allosteric modulators” (Eli Lilly and Company, priority 2020, published 2023)

Key:
[1] = system: CYP3A; assay: Intrinsic clearance CLint,CYP3A,liver; type: in vitro ADME; conditions: human
[2] = Passive permeability in MDCKII cell line (Papp); type: in vitro ADME; conditions: dog, MDCK
Description: Papp is the passive permeability measured in MDCKII cell line in house

[3] = molecular target: human D1 receptor (Homo sapiens (Human), UniProt P21728); assay: Human D1 Receptor PAM Assay (cAMP HTRF, potentiator mode); type: cell-based
Description: The PAM activity of the compounds of the present invention may be measured essentially as described in Svensson et al., An Allosteric Potentiator of the Dopamine D1 Receptor Increases Locomotor Activity in Human D1 Knock-in Mices without Casusing Stereotypy or Tachyphylaxis. J. Pharmacol. Exp. Ther. (2017) 360:117-128.
More specifically, HEK293 cells that stably express the human D1 receptor (Accession number NM_000794) are generated by gene transduction using the pBABE-bleo retroviral vector and selected with Zeocin™ (InvivoGen). At approximately 80% confluency, the cells are harvested using TrypLE™ Express (Gibco), suspended in FBS plus 8% DMSO, and stored in liquid nitrogen. On the day of the assay, cells are thawed and resuspended in STIM buffer (Hanks Balanced Salt Solution supplemented with 0.1% BSA, 20 mM HEPES, 500 μM IBMX, and 100 μM ascorbic acid).
Test compound is serially diluted (1:2) with DMSO into assay plates (ProxiPlate-384 Plus, PerkinElmer) using acoustic dispensing (Labcyte) to provide 20 concentrations for full response curves. Test compound (80 nL) is added to 5 μL STIM buffer containing 2000 cells, and 5 μL of a 2×concentration dopamine solution in STIM buffer that will generate an EC20 level response (24 nM in stock solution, or 12 nM final) and a final DMSO concentration in the well of 0.8%. Plates are incubated at room temperature for a total reaction time of 60 min.
cAMP production is quantified using HTRF® detection (Cisbio) according to the manufacturer's instructions. Generally, lysis buffer containing anti-cAMP cryptate (5 μL) and D2-conjugate (from HTRF® kit)(5 μL) is added to the wells, plates are incubated for an additional 60-90 min, and the time-resolved fluorescence is detected using an EnVision™ plate reader (PerkinElmer). Fluorescence data is converted to cAMP concentrations using a cAMP standard curve and analyzing using a 4-parameter non-linear logistic equation (Genedata Screener, version 13.0.5-standard). For potentiator mode concentration-response curves, results are expressed as percent of the window between a response at EC20 concentration of dopamine alone (normalized to 0%) and the maximum response to dopamine (defined by response to 5 μM dopamine, final concentration, normalized as 100%). Absolute EC50 values are calculated based on the maximum and minimum responses of the control agonist (dopamine). The % Potentiation (% Top) is determined from the fitted top of the concentration response curve.

[4] = molecular target: T1, CYP3A4 (Homo sapiens (Human), UniProt P08684); assay: Recombinant CYP phenotyping assay (fmCYP3A4_RCP); type: in vitro ADME; conditions: not examined in RCP assay; worst case of 100% metabolized by CYP3A4 assumed
Procedure: The relative fraction of a compound's metabolism contributed by a given CYP, as for example CYP3A4, of the total P450 metabolism of the compound may be determined as follows:
A panel of 9 human recombinant CYPs (rCYPs) provided as Supersomes (BD Gentest, Woburn, MA), including rCYPs 1A2, 2B6, 2C8, 2C9, 2C19, 2D6, 2J2, 3A4, and 3A5, are evaluated for compound metabolism (see generally Cannady E A, et al. (2015) Evacetrapib: in vitro and clinical disposition, metabolism, excretion, and assessment of drug interaction potential with strong CYP3A and CYP2C8 inhibitors. Pharmacol Res Perspect 3:e00179). […]
in which kdep is the substrate depletion rate constant (min^−1), pmol rCYP is the lot-specific amount of rCYP in the incubation, and relative activity factor (RAF) is a relative activity factor (pmol/mg) appropriate for the rCYPs/HLMs pair. The rate constant is determined in-house by experiment, the slope determined using linear regression from the log transformed % remaining on the y-axis vs time on the x-axis (min^−1). pmol rCYP and RAF are vender supplied constenats for the supersome.
The fraction of CYP3A4-mediated metabolism (fmCYP3A4_RCP) is determined by dividing the HLM-scaled CLint of CYP3A4 by the sum of the HLM-scaled CL1nt for each P450 subtype assayed (Cannady et al., 2015).

[5] = molecular target: T1, CYP3A4; assay: Calculation of fraction of compound cleared through CYP3A4 metabolism (fmCYP3A4); conditions: fmCYP × fm3A4_RCP (worst-case fm3A4_RCP = 1)
Description: The fraction of overall clearance of a drug via oxidative metabolism by the cytochrome P450 (CYP) is an important indication for potential victim drug-drug interaction mediated adverse effects. (see generally Ogu, Chris C., and Maxa, Jan L., Drug interactions due to cytochrome P450, BUMC Proceedings 2000; 13:421-423.) The greater fraction of overall clearance for a given drug that goes though a CYP oxidation pathway, particularly exclusively through a single CYP, as for example CYP3A4, the greater the potential that the drug may be found susceptible to undesired victim drug-drug interactions when used in therapy. To determine the fmCYP3A4 (the fraction of metabolism via CYP3A4), the fraction of P450-mediated oxidation, (fmCYP) is first determined in human hepatocytes. The relative contribution of CYP3A4 mediated oxidation (fmCYP3A4_RCP) over other P450 s is then determined using a recombinant CYP phenotyping assay (RCP). The fmCYP3A4 is calculated using the following equation:
fmCYP3A4=fmCYP×fmCYP3A4_RCP
The renal and biliary excretion of test compounds is tested in bile-duct cannulated dogs essentially according to Burkey J L, et al. (2002) Disposition of LY333531, a selective protein kinase C beta inhibitor, in the Fischer 344 rat and beagle dog. Xenobiotica 32:1045-1052. […] The fraction of compound cleared through CYP3A4 metabolism is calculated using the equation below: […]

[6] = Renal and biliary excretion in bile-duct cannulated dogs; type: in vivo, dog
Procedure: The renal and biliary excretion of test compounds is tested in bile-duct cannulated dogs essentially according to Burkey J L, et al. (2002) Disposition of LY333531, a selective protein kinase C beta inhibitor, in the Fischer 344 rat and beagle dog. Xenobiotica 32:1045-1052. The compound of Example 7 is tested essentially as described and its renal and biliary excretion is found to be negligible. The fraction of compound cleared through CYP3A4 metabolism is calculated using the equation below: […]

Sequence of human D1 receptor (P21728 whole entry): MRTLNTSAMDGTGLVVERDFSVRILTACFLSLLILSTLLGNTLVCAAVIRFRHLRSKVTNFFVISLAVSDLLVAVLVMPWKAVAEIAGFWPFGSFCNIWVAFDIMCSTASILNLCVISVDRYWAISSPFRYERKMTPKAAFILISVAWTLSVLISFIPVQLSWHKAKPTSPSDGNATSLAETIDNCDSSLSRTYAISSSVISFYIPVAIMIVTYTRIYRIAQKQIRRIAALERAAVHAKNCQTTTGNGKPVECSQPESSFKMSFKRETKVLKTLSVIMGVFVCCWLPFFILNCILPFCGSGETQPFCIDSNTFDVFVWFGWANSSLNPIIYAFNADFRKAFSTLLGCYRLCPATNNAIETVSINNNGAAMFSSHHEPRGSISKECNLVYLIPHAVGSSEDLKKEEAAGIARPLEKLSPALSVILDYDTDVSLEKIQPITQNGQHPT

Compound: C[C@H]1c2ccc(F)c(CCC(C)(C)O)c2C[C@H](CO)N1C(=O)Cc1c(F)cccc1Cl [Example 7, 2-(2-chloro-6-fluoro-phenyl)-1-[(1S,3R)-6-fluoro-3-(hydroxymethyl)-5-(3-hydroxy-3-methyl-butyl)-1-methyl-3,4-dihydro-1H-isoquinolin-2-yl]ethanone]
- microsomal CLint [1]: 25.5 µL/min/mg
- Papp [2]: 37.9 ×10⁻⁶ cm/s
- EC50 ([3]; HEK293 cells expressing human D1, with EC20 dopamine (12 nM final), cAMP, read-out: Abs EC50): 10.2 ± 1.4 nM
- % Top (% Potentiation) ([3]; fitted top, 0% = EC20 dopamine alone, 100% = 5 μM dopamine): 90.9%
- fm3A4_RCP [4]: 1
- fmCYP3A4 [5]: 0.322
- renal and biliary excretion [6]: negligible
